The test system of the assay is bacteria (e.g. S. aureus, B. subtilis, Pseud. aeuruginosa). Description: Antimicrobial activity of glyceryl monolaurate. Format: cell-based. An excerpt: The compositions have an inbuilt antimicrobial system which gives less need for preservatives. The antimicrobial activity of the composition is partly due to the presence of hydrogen peroxide and partly due to the presence of glyceryl monolaurate. […] In combination with hydrogen peroxide, a synergistic effect is achieved and antimicrobial activity according to A criteria is obtained against also yeast (e.g. Candida albicans) and molds (Aspergillus niger). This was shown by performing a preservative effectiveness test according to the PhEur method. Acceptance criteria A is the most strict criteria according to PhEur. Criteria B is less strict.

SMILES strings stand for the structures.

In the case of `CCCCCCCCCCCC(=O)OCC(O)CO` (stereo not shown) [Glyceryl monolaurate], the “antimicrobial activity against bacteria” value was “antimicrobially active against bacteria”.
